Like-named read-outs stand apart in the source and are kept apart here.
Key:
[1] = test system: primary human endothelial cells (EC); assay: 3C system: endothelial cells stimulated with IL-1β, TNF-α and IFN-γ, readout parameters by cell-based ELISA; details: 24 hr cytokine activation; non-toxic concentrations
Protocol: Cell culture. Human umbilical vein endothelial cells (HUVEC) were obtained from Cascade Biologics (Portland, Oreg.) and cultured in EGM-2 medium containing supplements provided by the manufacturer and 2% heat inactivated fetal bovine serum (Hyclone, Logan, Utah) and subcultured with 0.05% trypsin-0.53 mM EDTA (Mediatech, Herndon, Va.) as described by the manufacturer. […] Experiments were performed by culturing HUVEC in microtiter plates (Falcon; BD Biosciences), in the presence of cytokines (IL-1β, 1 ng/ml; TNF-α, 5 ng/ml; and IFN-γ, 100 ng/ml), activators (SAg, 20 ng/ml or LPS, 0.2 ng/ml), and/or PBMC (7.5×10^4) for the indicated times. Drugs were added 1 hr before stimulation and were present during the whole 24 hr stimulation period.
Cell-based ELISAs. […] Briefly, microtiter plates containing treated and stimulated HUVEC (or HUVEC/PBMC) were blocked, and then incubated with primary antibodies or isotype control antibodies (0.01-0.5 μg/ml) for 1 hr. […] Plates were washed and developed with TMB substrate (Clinical Science Products, Mansfield, Mass.) and the absorbance (OD) was read at 450 nm (subtracting the background absorbance at 650 nm) with a Molecular Devices SpectraMAX 190 plate reader (Molecular Devices, Sunnyvale, Calif.).
Data analysis. Mean OD values for each parameter were calculated from triplicate samples per experiment. […]

[2] = test system: PBMC and endothelial cell co-culture; assay: SAg system: PBMC and endothelial cell co-culture stimulated with superantigen; assay type: cell-based, human
[3] = 24 hr SAg stimulation, non-toxic concentrations

Molecule: COc1cccc(-c2cc(=O)c3ccccc3o2)c1N [PD098059]
- activity in the 3C (endothelial inflammation) system [1]: induces a characteristic response profile

Molecule: Cc1ccc(-c2nn(C(C)(C)C)c3ncnc(N)c23)cc1 [PP1]
- activity in the SAg system [2]: active

Molecule: CC(C)(C)n1nc(-c2ccc(Cl)cc2)c2c(N)ncnc21 [PP2]
- activity in the SAg system [2]: active

Molecule: CCCCOc1cc(CC2CNC(=O)N2)ccc1OC (stereo not drawn) [Ro-20-1274]
- activity in the SAg system [2, 3]: active

Molecule: Nc1nccc(-c2c(-c3ccc(F)cc3)ncn2C2CCNCC2)n1 [SB220025]
- activity in the SAg system [2, 3]: retain activity

Molecule: COc1cc2ncnc(Nc3ccc(O)cc3)c2cc1OC [WHI-P131]
- activity in the SAg system [2, 3]: active

Molecule: CC(C)N(CCC(=O)c1ccc2ccccc2c1)Cc1ccccc1 [ZM39923]
- activity in the SAg system [2, 3]: active

Molecule: O=c1cc(-c2ccc(O)cc2)oc2cc(O)cc(O)c12 [apigenin]
- activity in the 3C (endothelial inflammation) system [1]: induces a characteristic response profile

Molecule: CO[C@H]1C[C@@H]2CC[C@@H](C)[C@@](O)(O2)C(=O)C(=O)N2CCCC[C@H]2C(=O)O[C@H]([C@H](C)C[C@@H]2CC[C@@H](O)[C@H](OC)C2)CC(=O)[C@H](C)/C=C(\C)[C@@H](O)[C@@H](OC)C(=O)[C@H](C)C[C@H](C)/C=C/C=C/C=C/1C [rapamycin]
- activity in the SAg system [2, 3]: active

Molecule: COc1ccc(C2CNC(=O)C2)cc1OC1CCCC1 (stereo not drawn) [rolipram]
- activity in the SAg system [2, 3]: active

Molecule: IL-1 receptor antagonist: Recombinant human IL-1ra
- activity in the SAg system [2]: detects inhibition

B1: IL-10: Recombinant human IL-10 (protein, UniProt P22301 19-178, looked up)
Interleukin-10: SPGQGTQSENSCTHFPGNLPNMLRDLRDAFSRVKTFFQMKDQLDNLLLKESLLEDFKGYLGCQALSEMIQFYLEEVMPQAENQDPDIKAHVNSLGENLKTLRLRLRRCHRFLPCENKSKAVEQVKNAFNKLQEKGIYKAMSEFDIFINYIEAYMTMKIRN
- activity in the SAg system [2]: active

Reference: patent US20070072246A1, “Cell-based assays for determining drug action” (priority 2003, published 2007)
